Source: ChEMBL document CHEMBL1201862, “PubChem BioAssay data set” (2004)
Active and inactive are the calls of the source. Rule as the data show it, for most assays here: actives have a measured EC50 and inactives only a lower limit.

biological target: Cytochrome P450 3A4 (Homo sapiens, UniProt P08684); settings: not given;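 also: CYP3A4 tested as one member of a cytochrome P450 panel screen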
Sequence (P08684 whole entry): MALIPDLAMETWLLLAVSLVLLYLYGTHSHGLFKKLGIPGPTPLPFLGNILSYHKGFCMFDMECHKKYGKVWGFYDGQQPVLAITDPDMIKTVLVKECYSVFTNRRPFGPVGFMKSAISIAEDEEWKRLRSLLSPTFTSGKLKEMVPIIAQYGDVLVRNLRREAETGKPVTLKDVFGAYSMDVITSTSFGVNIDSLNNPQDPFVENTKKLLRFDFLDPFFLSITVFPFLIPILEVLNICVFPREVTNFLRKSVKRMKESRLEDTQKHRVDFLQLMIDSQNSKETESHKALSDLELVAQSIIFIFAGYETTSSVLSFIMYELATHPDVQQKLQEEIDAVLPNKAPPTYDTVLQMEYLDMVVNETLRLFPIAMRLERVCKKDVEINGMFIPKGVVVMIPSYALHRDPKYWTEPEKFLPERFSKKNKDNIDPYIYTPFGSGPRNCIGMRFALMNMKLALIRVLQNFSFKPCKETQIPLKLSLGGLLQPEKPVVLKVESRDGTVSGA

Row | AC50 | Compound
1 | 39.8 µM (inconclusive) | Ic1ccc(N2CCN(Cc3c[nH]c4ncccc34)CC2)cc1
2 | 3.16 µM (inconclusive) | c1ccc(C2=NN[C@@H]3c4ccccc4-c4ccccc4N3C2)cc1
3 | 31.6 µM (inconclusive) | C[C@@]1(C(=O)O)NCCc2cc(O)c(O)cc21
4 | 11.2 µM (inconclusive) | COc1ccc(-c2cc(C(=O)Nc3nc4c(C)cccc4s3)c3ccccc3n2)cc1OC
5 | 3.98 µM (inconclusive) | C#CCCCO/N=C1/[C@H]2O[C@@H]2[C@@H](O)[C@H]2[C@H]1CCn1c(=O)n([C@@H](CC)c3ccccc3)c(=O)n12
6 | 25.1 µM (inconclusive) | O=S(=O)(NCc1cc(-c2ccc(Cl)cc2)no1)c1ccc(Cl)cc1
7 | 10 µM (inconclusive) | CCNc1ncc2nc(-c3cc(F)cc(F)c3)c(=O)n(-c3ccccc3)c2n1
8 | 3.16 µM (inconclusive) | CCc1cc2c(nc1CC)CCN(CC/C(C)=N/O[C@@H](C)CN1CCCc3nc(C)c(C)cc31)C2
9 | 25.1 µM (inconclusive) | c1csc(CNc2cc(-c3ccoc3)ncn2)c1
10 | 39.8 µM (inconclusive) | Cc1ccc(S(=O)(=O)/C=C\C#N)cc1
11 | 28.2 µM (inconclusive) | C=CCNC(=O)c1csc(-c2ccccc2)n1

Row | Compound | AC50
12 | Clc1ccc(C2=CCC[C@H]3CC[C@@H]2N3)cn1 | 39.8 µM (inconclusive)

system: INS1; assay: INS-1E survival protection against cytokine death – cell-based, luminescence, retest, dose response (AID 449756); format: functional; settings: Rattus norvegicus;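 also: cell death triggered by IL-1 beta plus TNF-alpha plus IFN-gamma mixture; protective hits raise ATP signal compared with cytokine alone wells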

Row | Compound | AC50
13 | CC1(C(=O)OCC(=O)N2c3ccccc3Sc3ccccc32)CC1(Cl)Cl (configuration not stated) | 37.4 µM (active)
14 | C/C(Cn1nnc([N+](=O)[O-])n1)=N\NC(=O)c1ccccc1Cl | 10.5 µM (active)
15 | COc1cccc(C(=O)Oc2c(Br)cc(Br)cc2/C=N/NC(=O)c2cc(C)[nH]n2)c1 | 3.11 µM (active)
16 | COc1ccc(-c2c[n+](-c3ccc(OC)cc3)c3n2-c2ccccc2CC3)cc1 | 0.786 µM (active)
17 | CN1/C(=C\C(S)=Nc2ccccc2)C(C)(C)c2ccccc21 | 8.05 µM (active)
18 | COc1ccccc1/C=N/OCc1cc(C(C)=O)ccc1OC | 44.6 µM (active)

biological target: T1, Corticotropin-releasing factor receptor 2/Corticotropin-releasing factor-binding protein (Homo sapiens, UniProt P24387+Q13324); assay: activators of CRF receptor 2 with binding protein – uHTS hits, confirmation (AID 602473); format: functional; settings: read-out: EC50_Mean
T1 sequence (Q13324 whole entry): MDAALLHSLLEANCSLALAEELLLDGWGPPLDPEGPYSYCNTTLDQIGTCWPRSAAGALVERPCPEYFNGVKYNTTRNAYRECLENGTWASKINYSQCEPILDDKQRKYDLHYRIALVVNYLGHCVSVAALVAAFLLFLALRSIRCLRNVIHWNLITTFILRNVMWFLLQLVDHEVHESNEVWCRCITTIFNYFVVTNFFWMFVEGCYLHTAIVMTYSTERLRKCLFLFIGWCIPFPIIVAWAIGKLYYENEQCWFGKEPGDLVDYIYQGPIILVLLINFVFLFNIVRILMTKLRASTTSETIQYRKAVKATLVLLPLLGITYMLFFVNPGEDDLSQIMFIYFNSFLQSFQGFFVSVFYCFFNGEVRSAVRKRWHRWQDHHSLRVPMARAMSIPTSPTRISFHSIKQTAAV
T1 sequence (P24387 whole entry): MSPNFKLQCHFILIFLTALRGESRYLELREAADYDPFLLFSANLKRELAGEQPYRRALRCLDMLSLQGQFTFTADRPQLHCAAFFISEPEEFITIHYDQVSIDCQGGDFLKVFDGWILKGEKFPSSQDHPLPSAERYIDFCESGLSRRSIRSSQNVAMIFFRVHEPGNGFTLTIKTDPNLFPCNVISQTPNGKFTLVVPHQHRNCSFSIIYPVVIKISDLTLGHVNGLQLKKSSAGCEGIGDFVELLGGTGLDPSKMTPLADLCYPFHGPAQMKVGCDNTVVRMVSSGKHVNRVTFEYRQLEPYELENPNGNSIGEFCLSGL

Row | EC50 | Compound
19 | > 53 µM (inactive) | C=CCN1C(c2cccc(C(F)(F)F)c2)=CS/C1=C(/C#N)c1nnc(N2CCOCC2)n1-c1ccccc1
20 | 4.2 µM (active) | Cc1ccc(C(=O)NC(=S)NNC(=O)c2ccc([N+](=O)[O-])cc2)cc1
21 | > 53 µM (inactive) | CN1CCc2c(sc(/N=C/c3cccs3)c2C(N)=O)C1
22 | 7.87 µM (active) | CCOC(=O)C1(CC2CCCCO2)CCN(Cc2cc3ccccc3[nH]2)CC1 (configuration not stated)
23 | > 53 µM (inactive) | N#C/C(=C(/O)COC(=O)c1ccccc1O)c1nc2ccccc2s1
24 | 0.832 µM (active) | CSCCC(NC(=O)c1ccco1)C(=O)OC(C)C(=O)NC(=O)NC1CCCCC1 (configuration not stated)

system: not listed separately; assay: NIH3T3 cell viability loss – ATP luminescence, mouse fibroblasts, counter-screen, dose response (AID 2010); format: functional, cell-based; settings: not given;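 also: cells exposed to compound for about 90 hours before reading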

Row | Compound | EC50
25 | c1ccc(Nc2nc(-c3ccncc3)cs2)cc1 | > 60 µM (not active)
26 | Cc1cccc(C(=O)NCCCN(C)CCCNC(=O)c2cccc(C)c2)c1 | > 60 µM (not active)
27 | O=C1N(Cc2cccc(Cl)c2)C[C@@H]2C[C@@H](c3c[nH]c4ccccc34)N3CCC[C@@]123 | > 60 µM (inconclusive)
28 | Cc1ccc(S(=O)(=O)NCCn2cnc([N+](=O)[O-])n2)cc1 | > 60 µM (not active)
29 | CCCCOC(=O)Nc1nnc(C(C)C)s1 | 12.9 µM (active)
30 | COc1ccccc1C1NC=C([N+](=O)[O-])C=C1[N+](=O)[O-] (configuration not stated) | > 60 µM (not active)
31 | C/C(Cn1nnc([N+](=O)[O-])n1)=N\NC(=O)c1ccccc1Cl | > 60 µM (not active)
32 | CC(C)(CNc1ccc(S(=O)(=O)C(F)(F)F)cc1[N+](=O)[O-])N1CCOCC1 | 4.83 µM (active)
33 | COc1cccc(C(=O)Oc2c(Br)cc(Br)cc2/C=N/NC(=O)c2cc(C)[nH]n2)c1 | 8.01 µM (active)

system: not listed separately; assay: Trypanosoma cruzi growth suppression in host cells – NIH3T3 host cells, beta-gal luminescence, confirmation (AID 2044); format: functional, cell-based; settings: not given;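 also: intracellular parasites grown in NIH/3T3 mouse fibroblasts as host cells; luminescent beta-galactosidase reporter signal from transgenic T. cruzi replicating inside host cells; inhibitors lower the luminescence signal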

Row | Compound | EC50
34 | c1ccc(Nc2nc(-c3ccncc3)cs2)cc1 | 0.544 µM (active)
35 | Cc1cccc(C(=O)NCCCN(C)CCCNC(=O)c2cccc(C)c2)c1 | 0.894 µM (active)
36 | O=C1N(Cc2cccc(Cl)c2)C[C@@H]2C[C@@H](c3c[nH]c4ccccc34)N3CCC[C@@]123 | 2 µM (active)
37 | Cc1ccc(S(=O)(=O)NCCn2cnc([N+](=O)[O-])n2)cc1 | 0.116 µM (active)
38 | CCCCOC(=O)Nc1nnc(C(C)C)s1 | 1.26 µM (active)
39 | COc1ccccc1C1NC=C([N+](=O)[O-])C=C1[N+](=O)[O-] (configuration not stated) | 1.73 µM (active)
40 | C/C(Cn1nnc([N+](=O)[O-])n1)=N\NC(=O)c1ccccc1Cl | 0.47 µM (active)
41 | CC(C)(CNc1ccc(S(=O)(=O)C(F)(F)F)cc1[N+](=O)[O-])N1CCOCC1 | 2.42 µM (active)
42 | COc1cccc(C(=O)Oc2c(Br)cc(Br)cc2/C=N/NC(=O)c2cc(C)[nH]n2)c1 | 0.942 µM (active)
